Measurements as given in ChEMBL document CHEMBL1909046, “DrugMatrix in vitro pharmacology data”.

Experiments:
[1] = biological target: C-C chemokine receptor type 5 (Homo sapiens, UniProt P51681); type: cell membranes, HEK293, Membrane; conditions: hek293; also: in other assays of this panel Not Active means under 50% inhibition at 10 µM
[2] = biological target: T1, 5-hydroxytryptamine receptor 2C (Homo sapiens, UniProt P28335); assay: DRUGMATRIX: Serotonin (5-Hydroxytryptamine) 5-HT2C radioligand binding (ligand: [3H] Mesulergine); type: cell membranes, CHO-K1, Membrane; conditions: cho-k1; Not Active = under 50% inhibition at 10 µM
T1 sequence (P28335 whole entry): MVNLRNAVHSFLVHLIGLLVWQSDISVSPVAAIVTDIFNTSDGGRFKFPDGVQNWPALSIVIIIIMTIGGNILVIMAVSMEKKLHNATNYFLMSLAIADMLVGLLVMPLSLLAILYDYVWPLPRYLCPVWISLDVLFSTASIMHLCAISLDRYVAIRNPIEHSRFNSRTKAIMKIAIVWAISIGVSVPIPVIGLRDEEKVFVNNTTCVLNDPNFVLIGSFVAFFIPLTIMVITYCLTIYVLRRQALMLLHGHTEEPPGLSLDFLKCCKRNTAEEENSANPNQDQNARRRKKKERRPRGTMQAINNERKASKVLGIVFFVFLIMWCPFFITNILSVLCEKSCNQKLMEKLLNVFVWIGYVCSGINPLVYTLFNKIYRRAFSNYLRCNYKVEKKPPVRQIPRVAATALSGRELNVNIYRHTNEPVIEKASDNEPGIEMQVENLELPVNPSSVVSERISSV

[3] = DRUGMATRIX: Serotonin (5-Hydroxytryptamine) 5-HT3 radioligand binding (ligand: [3H] GR-65630); type: cell membranes, Membrane; conditions: hek293; Not Active = under 50% inhibition at 10 µM
Neutrophil elastase = biological target: T2, Neutrophil elastase (Homo sapiens, UniProt P08246); type: tissue-based;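 also: inhibition of neutrophil elastase enzyme activity, measured with a p-nitroanilide-linked peptide substrate; in other assays of this panel Not Active means under 50% inhibition at 10 µM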
T2 sequence (P08246 whole entry): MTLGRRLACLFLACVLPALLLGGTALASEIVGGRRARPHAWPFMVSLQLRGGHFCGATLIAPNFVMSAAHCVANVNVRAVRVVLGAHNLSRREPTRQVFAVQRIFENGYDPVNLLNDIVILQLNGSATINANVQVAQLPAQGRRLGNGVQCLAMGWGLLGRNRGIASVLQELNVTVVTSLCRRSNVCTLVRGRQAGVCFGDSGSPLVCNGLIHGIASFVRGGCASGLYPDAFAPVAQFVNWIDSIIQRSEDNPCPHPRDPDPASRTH

[4] = biological target: T3, Cholecystokinin receptor type A (Homo sapiens, UniProt P32238); type: cell membranes, Membrane; conditions: 1321-n1; also: in other assays of this panel Not Active means under 50% inhibition at 10 µM
T3 sequence (P32238 whole entry): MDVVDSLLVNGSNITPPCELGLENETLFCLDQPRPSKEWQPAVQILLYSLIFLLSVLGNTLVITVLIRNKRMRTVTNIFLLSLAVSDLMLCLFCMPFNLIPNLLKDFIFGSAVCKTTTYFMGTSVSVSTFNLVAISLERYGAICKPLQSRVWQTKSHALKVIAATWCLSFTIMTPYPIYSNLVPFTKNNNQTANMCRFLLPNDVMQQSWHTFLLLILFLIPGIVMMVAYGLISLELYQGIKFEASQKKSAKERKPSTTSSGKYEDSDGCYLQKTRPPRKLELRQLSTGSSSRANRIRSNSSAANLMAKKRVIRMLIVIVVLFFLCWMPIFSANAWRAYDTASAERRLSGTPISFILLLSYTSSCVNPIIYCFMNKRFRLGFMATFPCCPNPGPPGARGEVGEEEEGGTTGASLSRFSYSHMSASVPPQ

[5] = biological target: Beta-1 adrenergic receptor (Homo sapiens, UniProt P08588); assay: DRUGMATRIX: Adrenergic beta1 radioligand binding (ligand: [125I] Cyanopindolol); type: cell membranes, CHO-K1, Membrane; conditions: cho-k1; Not Active = under 50% inhibition at 10 µM
Beta-1 adrenergic receptor, sequence (P08588 whole entry): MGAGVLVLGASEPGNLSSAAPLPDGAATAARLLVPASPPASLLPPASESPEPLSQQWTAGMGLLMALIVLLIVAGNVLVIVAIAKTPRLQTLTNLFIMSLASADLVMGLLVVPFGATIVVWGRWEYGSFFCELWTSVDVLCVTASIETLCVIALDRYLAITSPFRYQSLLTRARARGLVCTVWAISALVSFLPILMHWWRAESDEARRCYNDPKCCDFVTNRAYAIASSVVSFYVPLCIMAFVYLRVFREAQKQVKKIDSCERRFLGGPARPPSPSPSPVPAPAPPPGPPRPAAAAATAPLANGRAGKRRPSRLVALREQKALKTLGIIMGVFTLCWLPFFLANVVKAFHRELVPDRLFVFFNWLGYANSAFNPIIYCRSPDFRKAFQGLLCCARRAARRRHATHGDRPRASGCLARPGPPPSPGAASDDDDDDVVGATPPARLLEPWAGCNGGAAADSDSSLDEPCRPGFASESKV

Adenosine receptor A3 = biological target: T4, Adenosine receptor A3 (Homo sapiens, UniProt P0DMS8); type: cell membranes, CHO-K1, Membrane;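 also: radioligand binding assay with AB-MECA serving as the labeled ligand; in other assays of this panel Not Active means under 50% inhibition at 10 µM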
T4 sequence (P0DMS8 whole entry): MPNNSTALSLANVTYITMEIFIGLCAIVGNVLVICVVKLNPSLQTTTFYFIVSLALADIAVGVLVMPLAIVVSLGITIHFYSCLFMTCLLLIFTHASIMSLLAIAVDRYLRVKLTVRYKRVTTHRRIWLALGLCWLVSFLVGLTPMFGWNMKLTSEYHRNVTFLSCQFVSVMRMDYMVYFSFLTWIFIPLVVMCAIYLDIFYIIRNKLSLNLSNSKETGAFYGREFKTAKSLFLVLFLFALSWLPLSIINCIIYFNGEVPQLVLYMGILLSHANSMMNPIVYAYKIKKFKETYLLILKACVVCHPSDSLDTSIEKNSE

C-C chemokine receptor type 5, sequence (P51681 whole entry): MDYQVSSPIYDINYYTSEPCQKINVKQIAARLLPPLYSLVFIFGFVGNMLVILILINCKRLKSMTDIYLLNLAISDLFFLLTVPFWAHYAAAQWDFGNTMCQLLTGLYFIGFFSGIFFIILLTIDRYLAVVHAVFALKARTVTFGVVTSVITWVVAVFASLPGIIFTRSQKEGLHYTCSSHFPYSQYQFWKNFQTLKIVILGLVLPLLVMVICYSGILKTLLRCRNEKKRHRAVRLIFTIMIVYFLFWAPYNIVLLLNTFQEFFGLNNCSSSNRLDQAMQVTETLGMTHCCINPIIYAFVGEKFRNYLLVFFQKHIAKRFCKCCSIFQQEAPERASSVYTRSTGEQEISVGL

| Compound | IC50 [1] | IC50 [2] | IC50 [3] | Ki [3] | IC50 (Neutrophil elastase) | IC50 [4] | IC50 [5] | IC50 (Adenosine receptor A3; cho-k1) | IC50 (Adenosine receptor A3; read-out: IC50) | Ki (Adenosine receptor A3; read-out: Ki) |
| --- | --- | --- | --- | --- | --- | --- | --- | --- | --- | --- |
| C=C1CC[C@H](O)C/C1=C/C=C1\CCC[C@]2(C)[C@@H]([C@H](C)CCCC(C)C)CC[C@@H]12 [CHOLECALCIFEROL] | Not Active | Not Active | Not Active | Not Active | Not Active | Not Active | Not Active | Not Active |  |  |
| C[N+](C)(C)CCO.[Cl-] [CHOLINE CHLORIDE] | Not Active | Not Active | Not Active | Not Active | Not Active | Not Active | Not Active | Not Active |  |  |
| CCOC(=O)C(C)(C)Oc1ccc(Cl)cc1 [CLOFIBRATE] | Not Active | Not Active | Not Active | Not Active | Not Active | Not Active | Not Active | Not Active |  |  |
| CC(=O)OCC(=O)[C@@]1(O)CC[C@H]2[C@@H]3CCC4=CC(=O)CC[C@]4(C)[C@H]3C(=O)C[C@@]21C [CORTISONE ACETATE] | Not Active | Not Active | Not Active | Not Active | Not Active | Not Active | Not Active | Not Active |  |  |
| O=c1ccc2ccccc2o1 [COUMARIN] | Not Active | Not Active | Not Active | Not Active | Not Active | Not Active | Not Active | Not Active |  |  |
| C[C@@H]1C[C@@H]([C@H](O)CC2CC(=O)NC(=O)C2)C(=O)[C@@H](C)C1 [CYCLOHEXIMIDE] | Not Active | Not Active | Not Active | Not Active | Not Active | Not Active | Not Active | Not Active |  |  |
| C/C=C/C[C@@H](C)[C@@H](O)[C@H]1C(=O)N[C@@H](CC)C(=O)N(C)CC(=O)N(C)[C@@H](CC(C)C)C(=O)N[C@@H](C(C)C)C(=O)N(C)[C@@H](CC(C)C)C(=O)N[C@@H](C)C(=O)N[C@H](C)C(=O)N(C)[C@@H](CC(C)C)C(=O)N(C)[C@@H](CC(C)C)C(=O)N(C)[C@@H](C(C)C)C(=O)N1C [CYCLOSPORINE] | Not Active | Not Active | Not Active | Not Active | Not Active | Not Active | Not Active | Not Active |  |  |
| CN(C)/N=N/c1[nH]cnc1C(N)=O [DACARBAZINE] | Not Active | Not Active | Not Active | Not Active | Not Active | Not Active | Not Active | Not Active |  |  |
| COc1ccc2c(c1)[C@]13CCCC[C@@H]1[C@H](C2)N(C)CC3 [DEXTROMETHORPHAN] | Not Active | Not Active | Not Active | Not Active | Not Active | Not Active | Not Active | Not Active |  |  |
| CC(=O)Nc1c(I)c(NC(C)=O)c(I)c(C(=O)O)c1I [DIATRIZOIC ACID] | Not Active | Not Active | Not Active | Not Active | Not Active | Not Active | Not Active | Not Active |  |  |
| COP(=O)(OC)OC=C(Cl)Cl [DICHLORVOS] | Not Active | Not Active | Not Active | Not Active | Not Active | Not Active | Not Active | Not Active |  |  |
| O=C(O)Cc1ccccc1Nc1c(Cl)cccc1Cl [DICLOFENAC] | Not Active | Not Active | Not Active | Not Active | Not Active | Not Active | Not Active | Not Active |  |  |
| C[C@H]1O[C@@H](O[C@H]2[C@@H](O)C[C@H](O[C@H]3[C@@H](O)C[C@H](O[C@H]4CC[C@@]5(C)[C@H](CC[C@@H]6[C@@H]5CC[C@]5(C)[C@@H](C7=CC(=O)OC7)CC[C@]65O)C4)O[C@@H]3C)O[C@@H]2C)C[C@H](O)[C@@H]1O [DIGITOXIN] | Not Active | Not Active | Not Active | Not Active | Not Active | Not Active | Not Active | Not Active |  |  |
| CCN1CC(CCN2CCOCC2)C(c2ccccc2)(c2ccccc2)C1=O (configuration not stated) [DOXAPRAM] | Not Active | Not Active | Not Active | Not Active | Not Active | Not Active | Not Active | Not Active |  |  |
| Cn1c(=O)c2c(ncn2CC2OCCO2)n(C)c1=O [DOXOFYLLINE] | Not Active | Not Active | Not Active | Not Active | Not Active | Not Active | Not Active | Not Active |  |  |
| COc1cccc2c1C(=O)c1c(O)c3c(c(O)c1C2=O)C[C@@](O)(C(=O)CO)C[C@@H]3O[C@H]1C[C@H](N)[C@H](O)[C@H](C)O1 [DOXORUBICIN] | Not Active | Not Active | Not Active | Not Active | Not Active | Not Active | Not Active | Not Active |  |  |
| COc1cccc2c1C(=O)c1c(O)c3c(c(O)c1C2=O)C[C@@](O)(C(=O)CO)C[C@@H]3O[C@H]1C[C@H](N)[C@@H](O)[C@H](C)O1 [EPIRUBICIN] | Not Active | Not Active | Not Active | Not Active | Not Active | Not Active | Not Active | Not Active |  |  |
| C[C@]12CC[C@@H]3c4ccc(OC(=O)c5ccccc5)cc4CC[C@H]3[C@@H]1CC[C@@H]2O [ESTRADIOL BENZOATE] | Not Active | Not Active | Not Active | Not Active | Not Active | Not Active | Not Active |  | 21.8 µM | 12.3 µM |
| C[C@]12CC[C@@H]3c4ccc(O)cc4CC[C@H]3[C@@H]1CC[C@@H]2O [ESTRADIOL] | Not Active | Not Active | Not Active | Not Active | Not Active | Not Active | Not Active | Not Active |  |  |
| CC[C@@H](CO)NCCN[C@@H](CC)CO [ETHAMBUTOL] | Not Active | Not Active | Not Active | Not Active | Not Active | Not Active | Not Active | Not Active |  |  |
| CC1(C)O[C@@H]2C[C@H]3[C@@H]4C[C@H](F)C5=CC(=O)C=C[C@]5(C)[C@H]4[C@@H](O)C[C@]3(C)[C@]2(C(=O)CO)O1 [FLUNISOLIDE] | Not Active | Not Active | Not Active | Not Active | Not Active | Not Active | Not Active | Not Active |  |  |
| CC1(C)O[C@@H]2C[C@H]3[C@@H]4C[C@H](F)C5=CC(=O)C=C[C@]5(C)[C@@]4(F)[C@@H](O)C[C@]3(C)[C@]2(C(=O)CO)O1 [FLUOCINOLONE ACETONIDE] | Not Active | Not Active | Not Active | Not Active | Not Active | Not Active | Not Active | Not Active |  |  |
